Measurements reported in patent US10238713B2, “Cyclic tetrapeptides and therapeutic applications thereof” (LODZ UNIVERSITY OF TECHNOLOGY, priority 2010, dated 2019).
Non-standard residues stand in square brackets, D forms with d. Residues, ends and D or L forms follow the SMILES beside them. *: point of attachment. Bip = N[C@@H](Cc1ccc(-c2ccccc2)cc1)C(=O)O; β3hW = N[C@H](CC(=O)O)Cc1c[nH]c2ccccc12; Phe(4-F) = N[C@@H](Cc1ccc(F)cc1)C(=O)O; hPhe = N[C@@H](CCc1ccccc1)C(=O)O; β3hF = N[C@H](CC(=O)O)Cc1ccccc1; tBu = CC(C)(C)*

Experiments:
[1] = Solubility in the aqueous culture medium; assay type: physicochemical
Protocol: RPMI-1640 medium (Cibi/Life Technologies, UK), fetal calf serum (FCS, Gibco), DMSO, phytohemagglutinin A (PHA), lipopolysaccharide (LPS) from E. coli strain O111:B4 (Sigma), […]-2,5-diphenyltetrazolium bromide (MTT), SDS and DMF (Sigma). The culture medium consisted of RPMI-1640, 10% addition of FCS, L-glutamine, sodium pyruvate, 2-mercaptoetanol and antibiotics (streptomycin and penicillin). Cyclic tetrapeptides were initially dissolved in DMSO (5 mg/ml), the dissolved in the culture medium to the desired concentration.
The effects of the peptides on PMBC survival in 24h culture are presented in FIGS. 8A, 8B, 8C, 8D, 8E and 8F. Peptide 4B8M (compound I-A) was included as a reference compound. Appropriate dilutions of DMSO were added to control cultures. […] In the figures, P01=compound I-D, P02=compound I-E, P03=compound I-F, P04=compound I-G, P05=compound I-H, P06=compound I-J, P07=compound I-K, P08=compound I-L, P10a=compound I-M, P10b=compound I-N, P11=compound I-O, P21=compound I-R, P-21b=compound I-Q, P22=compound I-S, P23-2=compound I-U, P24=compound I-V, P25=compound I-X, P25-i=compound I-W, P26=compound I-Y, P27=compound I-Z, P28=compound I-AA, P29=compound I-AB, P30=compound I-AC, P31=compound I-AD, P32=compound I-AE, P33=compound I-AG, P33-b=compound I-AF, P34=compound I-AH, P35=compound I-AI, P00S-b=compound I-AJ, SP00-b=compound I-AL.

[2] = system: mice, carrageenan-induced foot pad edema; assay: Carrageenan-induced foot-pad edema test; assay type: in vivo, mouse; settings: 4 h after carrageenan; peptides 250 μg i.p., DEX 25 μg i.p., 30 min before; FIGS. 17A-17C
Protocol: (§1) In this and the air-pouch test, 1.5 mg peptide was dissolved in 300 μl of DMSO, then in 0.9% NaCl to achieve the desired dose (250 μg/0.2 ml or 100 μg/0.2 ml). Carrageenan (Sigma) was dissolved in 0.9% aqueous NaCl (overnight). 50 μl of 2% carrageenan solution was injected intradermally into hind foot pads. The peptides were given in a single 250 μg dose (0.2 ml) per mouse intraperitoneally (i.p.), 30 min before carrageenan administration. Dexamethasone (DEX) (Dexaven, Polfa, Poland), a reference drug, was given i.p. in dose 25 μg per mouse. Control mice were administered i.p. appropriately diluted solvent (DMSO in aqueous NaCl) instead of peptides. The foot pads of “background” (BG) mice were injected with 50 μl of 0.9% aqueous NaCl. Foot pad edema was measured with a spring caliper, 2 h, 3 h and 4 h after administration of carrageenan. The results are presented in FIGS. 17A, 17B and 17C as mean values of the antigen-specific increase of the foot pad thickness measured in 5 mice in each experimental group and expressed in mm ±SE (only results from measurements 4 h following administration of carrageenan are presented in figures). Statistics: FIG. 17A: Control vs: DEX P=0.0001; 4B8M P=0.0001; P25 NS (P=1.0000); P28 NS (P=1.0000); P31 NS (P=0.0528); P35 P=0.0008 (ANOVA of Kruskal-Wallis); FIG. 17B: Statistics: Control vs: P22 NS (P=1.0000); P26 NS (P=1.0000); P27 P=0.0050; P30 P=0.0004; P33-b NS (P=1.0000); SP00-b P=0.0001; P00S-b NS (P=1.0000) (ANOVA of Kruskal-Wallis); FIG. 17C: Statistics: Control vs: P21 P=0.0147; P23-2 P=0.0083; P24 P=0.0001; P29 NS (P=0.9999); P32 P=0.0001; P33 NS (P=0.6806); P34 NS (P=0.1920) (ANOVA).

[3] = system: mice, carrageenan air pouch; assay: Carrageenan air-pouch test (exudate cell number); assay type: in vivo, mouse; settings: peptides 100 μg i.p. one hour before carrageenan, 24 h; FIGS. 18A-18B
Protocol: as §1
Air pouches were formed by subdermal injection into the dorsal region (in a halothane anesthesia) of 5 cm^3 of air (needle 23G x 11/4, 5 ml syringe). On day 3 the air pouches were given an additional 2 ml of air and an inflammatory process was elicited by an intra-pouch injection of 1% of carrageenan in 0.5 ml of 0.9% aqueous NaCl. The peptides were given i.p. at a dose of 100 μg one hour before carrageenan injection into the air pouch. The mice from the “background” (BG) group were given 0.9% aqueous NaCl i.p. and 0.9% aqueous NaCl into the air pouches. Control mice were given appropriately diluted DMSO i.p. and carrageenan into the air pouches. 24 h after carrageenan injection, the mice were sacrificed by cervical dislocation, the air pouches were supplemented with 1 ml of 0.9% aqueous NaCl and the exudates from the air pouches were aspirated using a syringe. The exudates were diluted with 0.9% aqueous NaCl and the cells were counted in a Bürker hemocytometer. Data are presented in FIGS. 18A and 18B as the mean values from 10 mice/group (cell number×10^6 per mouse) ±SE. Then the cells were centrifuged and 0.1 ml of the supernatant was saved for TNF-α determination (see Determination of TNF-α activity, above). The cell pellets were used to perform smears on microscopic glasses, which were stained with Giemsa and May-Grünwald reagents for evaluation of mast cell degranulation. Cell analysis was performed by a histologist using a light microscope and 1000× magnification. The content of intact and degranulated mast cells is given in percentage (mean values from 10 mice/group) ±SE. Statistics: FIG. 18A: BG vs Control P=0.0000; Control vs: DEX P=0.0034; 4B8M P=0.0005; P22 NS (P=0.7275); P26 P=0.0032; P27 NS (P=0.0659); P35 NS (P=1.0000) (ANOVA of Kruskal-Wallis); FIG. 18B: Control vs: P21 NS (P=0.322); P23-2 P=0.0020; P24 P=0.0001; P25 P=0.0418; P28 NS (P=0.3502); P29 NS (P=0.0582); P30 P=0.0006; P31 P=0.0078; P32 P=0.0340; P33 NS (P=0.9993); P34 NS (p=0.0566) (ANOVA).

[4] = system: human PBMC; assay: Toxicity test: PBMC survival in 24 h culture (MTT); settings: ANOVA, FIGS. 8A-8F (4B8M repeated per figure)
Protocol: (§2) PBMC were isolated by centrifugation on Ficoll-uropoline gradient (density 1.077 g/ml) (Lymphoprep; PAA Laboratories), at 800×g for 20 min at 4° C. The interphase cells, consisting of lymphocytes (20%) and monocytes (80%) were then washed three times with Hanks' medium and re-suspended in the culture medium at density of 2×10^6 cells/ml.
Appropriate dilutions of DMSO in RPMI 1640 medium were used as controls. Cell survival was determined by the MTT colorimetric method (Hansen et al., J. Immunol. Methods, 1989, pp. 203-210). The data are presented as a mean OD value from quadriplicate wells ±standard error (SE). The cultures “Control (−)” contained only cells in the culture medium.
The assay was performed per Hansen et al., J. Immunol. […] Briefly, 25 μl of MTT (5 mg/ml) stock solution was added per well at the end of cell incubation and the plates were incubated for 3 h in a cell culture incubator. Then, 100 μl of the extraction buffer (20% SDS with 50% DMF, pH 4.7) was added. After additional overnight incubation, the optical density was measured at 550 nm (Dynatech 5000).

[5] = system: PHA-induced proliferation of human peripheral blood mononuclear cells (PBMC); assay: Proliferative response of PBMC to PHA (MTT); assay type: cell-based; settings: four-day incubation, FIGS. 9A-9F
Protocol: as §2
The isolated PBMC were distributed into 96-well flat-bottom plates in 100 μl aliquots (2×10^5 cells/well). PHA was used at concentration of 5 μg/ml. The compounds were tested at concentrations of 1, 10 and 100 μg/ml. DMSO at appropriate dilutions served as control. After a four-day incubation in a cell culture incubator, the proliferative response of cells was determined by the colorimetric MTT method (Hansen et al., J. Immunol. Methods, 1989, pp. 203-210). The data are presented as a mean OD value from quadriplicate wells ±standard error (SE). The cultures “Control (−)” contained no mitogen (PHA). The cultures “Control (PHA)” contained PHA but not cyclic tetrapeptides.
Briefly, 25 μl of MTT (5 mg/ml) stock solution was added per well at the end of cell incubation and the plates were incubated for 3 h in a cell culture incubator. Then, 100 μl of the extraction buffer (20% SDS with 50% DMF, pH 4.7) was added. After additional overnight incubation, the optical density was measured at 550 nm (Dynatech 5000).

[6] = system: concanavalin A-induced mouse splenocyte proliferation; assay: Proliferative response of splenocytes to concanavalin A (MTT); assay type: cell-based
Protocol: Spleens were pressed against a plastic screen into 0.83% NH4Cl solution to lyse erythrocytes (5 min incubation at room temperature). The cells were then washed twice with Hanks' medium, passed through glass wool column to remove debris, and re-suspended in the culture medium, referred to below as the “culture medium”, consisting of RPMI-1640, supplemented with 10% of fetal calf serum, L-glutamine, sodium pyruvate, 2-mercaptoethanol, streptomycin and penicillin (100 μg/ml). The cells were then distributed into 96-well flat-bottom tissue culture plates (Nunc) at a density of 2×10^5 cells/100 μl/well. Con A (2.5 μg/ml) was added to induce cell proliferation. The compounds were added to the cultures at doses of 1-100 μg/ml. After a three-day incubation, cell proliferation was determined using the colorimetric MTT method (Hansen M B, J Immunol Methods, 1989, 119, 203-210). The results were presented as the mean optical density (OD) at 550 nm ±SE from quadriplicate determinations (wells).

[7] = system: splenocytes; assay: Toxicity test on splenocytes (24 h, MTT); assay type: cell-based, mouse; settings: 100 μg/ml (printed 100 μg/m for I-C)
Protocol: Cell survival was determined by MTT colorimetric method. The results were presented as mean optical density (OD) at 550 nm from 4 wells. The viability of cells in respective compound concentrations was compared to appropriate DMSO control groups (100% survival), corresponding to respective compound concentrations.

[8] = system: mouse splenocyte cultures, humoral immune response to SRBC; assay: Secondary humoral immune response in vitro to SRBC (AFC number); assay type: cell-based
Protocol: Mice were sensitized intraperitoneally with 0.2 ml of 5% (v/v) SRBC suspension. After four days spleens from these mice were isolated and single cell suspensions prepared by homogenization in PBS solution. After washing the cells in PBS by centrifugation, the cells were re-suspended in the culture medium at a density of 5×10^6 cells/ml. The cells were subsequently distributed to 24-well culture plates in 1 ml aliquots and 0.05 ml of 0.005% SRBC was added as the antigen to each well. The compounds were added to the cultures at the beginning of the four-day incubation period at concentration ranges of 1-100 μg/ml. The number of antibody-forming cells (AFC) in the cultures was determined using a method of local hemolysis in agar gel according to Mishell et al., J Exp Med, 1967, 126, 423-442.

Row | solubility in the aqueous culture medium [1] | SMILES | foot pad edema (increase of foot pad thickness), P vs Control [2] | air pouch exudate cell number, P vs Control [3] | PBMC survival, P vs DMSO at appropriate dilution ([4]; 10 μg/ml) | PBMC survival, P vs DMSO at appropriate dilution ([4]; 100 μg/ml) | PHA-induced PBMC proliferation, P vs DMSO at appropriate dilution ([5]; 100 μg/ml) | PHA-induced PBMC proliferation, P vs DMSO at appropriate dilution ([5]; 10 μg/ml) | effect on concanavalin A-induced splenocyte proliferation ([6]; 100 μg/ml) | effect on concanavalin A-induced splenocyte proliferation ([6]; lower concentrations (below 100 μg/ml)) | toxicity to splenocytes [7] [%] | effect on concanavalin A-induced mouse splenocyte proliferation ([6]; 50-100 μg/ml) | suppression of in vitro humoral immune response to SRBC ([8]; 10 μg/m as printed) [%] | suppression of in vitro humoral immune response to SRBC ([8]; 100 μg/m as printed) [%]
1 | incomplete solubility | O=C1C[C@H](Cc2ccccc2)NC(=O)[C@@H]2CCCN2C(=O)[C@@H]2CCCN2C(=O)[C@H](Cc2ccc(-c3ccccc3)cc2)N1 [I-AH] (cyclo([Bip]PP[β3hF])) | 0.1920 | 0.0566 | 0.0005 | 0.0001 | 0.001861 |  |  |  |  |  |  | 
2 | incomplete solubility | O=C1C[C@H](Cc2ccccc2)NC(=O)[C@@H]2CCCN2C(=O)[C@@H]2CCCN2C(=O)[C@H](Cc2ccc(F)cc2)N1 [I-X] (cyclo(PP[β3hF][Phe(4-F)])) | 1.0000 | 0.0418 | 0.8597 | 0.0001 | 1.0000 |  |  |  |  |  |  | 
3 | incomplete solubility | CC(C)(C)OC[C@@H]1NC(=O)[C@@H]2CCCN2C(=O)[C@H](Cc2ccccc2)NC(=O)C[C@H](Cc2ccccc2)NC1=O [I-AJ] (cyclo(FPS(tBu)[β3hF])) | 1.0000 |  | 0.9962 | 0.9250 | 0.7035 | 1.0000 |  |  |  |  |  | 
4 | incomplete solubility | O=C1C[C@H](Cc2ccccc2)NC(=O)[C@@H]2CCCN2C(=O)[C@@H]2CCCN2C(=O)[C@H](CCc2ccccc2)N1 [I-AI] (cyclo(PP[β3hF][hPhe])) | 0.0008 | 1.0000 | 0.0222 | 1.0000 | 1.0000 |  |  |  |  |  |  | 

The next lines start with the compound.

Row | SMILES | solubility in the aqueous culture medium [1] | foot pad edema (increase of foot pad thickness), P vs Control [2] | air pouch exudate cell number, P vs Control [3] | PBMC survival, P vs DMSO at appropriate dilution ([4]; 10 μg/ml) | PBMC survival, P vs DMSO at appropriate dilution ([4]; 100 μg/ml) | PHA-induced PBMC proliferation, P vs DMSO at appropriate dilution ([5]; 100 μg/ml) | PHA-induced PBMC proliferation, P vs DMSO at appropriate dilution ([5]; 10 μg/ml) | effect on concanavalin A-induced splenocyte proliferation ([6]; 100 μg/ml) | effect on concanavalin A-induced splenocyte proliferation ([6]; lower concentrations (below 100 μg/ml)) | toxicity to splenocytes [7] [%] | effect on concanavalin A-induced mouse splenocyte proliferation ([6]; 50-100 μg/ml) | suppression of in vitro humoral immune response to SRBC ([8]; 10 μg/m as printed) [%] | suppression of in vitro humoral immune response to SRBC ([8]; 100 μg/m as printed) [%]
5 | O=C1C[C@H](Cc2c[nH]c3ccccc23)NC(=O)[C@@H]2CCCN2C(=O)[C@@H]2CCCN2C(=O)[C@H](Cc2ccccc2)N1 [I-AE] (cyclo(FPP[β3hW])) | incomplete solubility | 0.0001 | 0.0340 | 0.9954 | 0.9984 | 0.0023 | 0.0127 |  |  |  |  |  | 
6 | O=C1N[C@@H](Cc2ccccc2)CC(=O)N2CCC[C@H]2C(=O)N2CCC[C@H]2C(=O)N[C@H]1Cc1ccccc1 [I-B] (cyclo(F[β3hF]PP)) |  |  |  |  |  |  |  | weak antiproliferative effect | no such effect was observed | 30 |  |  | 
7 | O=C1C[C@H](Cc2ccccc2)NC(=O)[C@@H]2CCCN2C(=O)[C@@H]2CCCN2C(=O)C[C@H](Cc2ccccc2)N1 [I-C] (cyclo(PP[β3hF][β3hF])) |  |  |  |  |  |  |  |  |  | 70 | strong inhibitory effect | 33 | 80
